Test results taken from US8344008B2 (Janssen Pharmaceutica NV, priority 2007, dated 2013).

Target: T1, recombinant human LTA4 hydrolase (rhLTA4H) (Homo sapiens, UniProt P09960)
T1 construct: made in house; host or cells: Spodoptera frugiperda (Sf-9) cells, baculovirus (pFastBac1)
T1 sequence (P09960 1-611): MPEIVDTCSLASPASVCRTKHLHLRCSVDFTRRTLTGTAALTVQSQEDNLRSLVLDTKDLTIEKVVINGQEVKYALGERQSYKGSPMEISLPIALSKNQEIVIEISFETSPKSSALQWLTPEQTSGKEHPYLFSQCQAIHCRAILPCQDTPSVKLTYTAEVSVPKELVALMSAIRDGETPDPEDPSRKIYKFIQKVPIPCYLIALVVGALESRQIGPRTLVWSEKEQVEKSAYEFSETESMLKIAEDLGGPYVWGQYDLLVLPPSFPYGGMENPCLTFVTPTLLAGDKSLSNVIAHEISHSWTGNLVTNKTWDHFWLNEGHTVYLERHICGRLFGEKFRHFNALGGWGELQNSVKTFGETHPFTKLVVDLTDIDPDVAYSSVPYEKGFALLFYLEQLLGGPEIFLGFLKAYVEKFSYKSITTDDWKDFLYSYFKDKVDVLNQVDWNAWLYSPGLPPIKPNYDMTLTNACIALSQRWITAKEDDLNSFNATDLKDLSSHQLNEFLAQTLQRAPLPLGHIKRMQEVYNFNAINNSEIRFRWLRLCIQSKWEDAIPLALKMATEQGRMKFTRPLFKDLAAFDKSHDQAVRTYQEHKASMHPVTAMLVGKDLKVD
Assay: Recombinant Human LTA4 Hydrolase Assay for LTA4 Hydrolase Inhibitor Activity
Assay type: biochemical
Settings: average of results obtained; LTB4 quantified by enzyme-linked immunoassay
Procedure, shortened: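 LTB4 formation, quantified by EIA after 10 min at rt, was the read-out once 9 ng LTA4 (free acid) was added to recombinant human enzyme (36 ng, Sf-9 expressed) that had sat 10 min with compound. Buffer: 0.1 M potassium phosphate pH 7.4 with fatty-acid-free BSA; IC50 by 4-parameter fit.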

Row | SMILES | Ki [µM]
1 | CC(=O)N[C@@H]1C[C@H]2CC[C@@H](C1)N2Cc1ccc(Oc2nc3cc(Cl)ccc3s2)cc1 [Example 276, meso-exo-N-{8-[4-(5-Chloro-benzothiazol-2-yloxy)-benzyl]-8-aza-bicyclo[3.2.1]oct-3-yl}-acetamide] | 0.038
2 | CC(=O)N1C[C@@H]2C[C@H]1CN2Cc1ccc(Oc2nc3ccc(C)cc3s2)cc1 [Example 270, (S,S)-1-{5-[4-(6-Methyl-benzothiazol-2-yloxy)-benzyl]-2,5-diaza-bicyclo[2.2.1]hept-2-yl}-ethanone] | 0.072
3 | CC(=O)N1[C@@H]2CC[C@H]1C[C@H](NCCc1ccc(Oc3nc4c(Cl)cccc4s3)cc1)C2 [Example 275, meso-exo-1-(3-{2-[4-(4-Chloro-benzothiazol-2-yloxy)-phenyl]-ethylamino}-8-aza-bicyclo[3.2.1]oct-8-yl)-ethanone] | 0.264
4 | NC(=O)N1C[C@H]2C[C@@H]1CN2CCc1ccc(Oc2nc3ccccc3s2)cc1 [Example 280, (R,R)-5-{2-[4-(Benzothiazol-2-yloxy)-phenyl]-ethyl}-2,5-diaza-bicyclo[2.2.1]heptane-2-carboxylic acid amide] | 0.011
5 | O=S(=O)(c1ccsc1)N1CC2CN(Cc3ccc(Oc4nc5ccccc5s4)cc3)CC2C1 (centres unmarked) [Example 125, 2-{4-[5-(Thiophene-3-sulfonyl)-hexahydro-pyrrolo[3,4-c]pyrrol-2-ylmethyl]-phenoxy}-benzothiazole] | 3.62
6 | CC(=O)N1[C@@H]2CC[C@H]1C[C@H](NCCOc1ccc(Oc3nc4ccc(Cl)cc4s3)cc1)C2 [Example 268, meso-exo-1-(3-{2-[4-(6-Chloro-benzothiazol-2-yloxy)-phenoxy]-ethylamino}-8-aza-bicyclo[3.2.1]oct-8-yl)-ethanone] | 0.36
7 | CC(=O)NC1[C@H]2CN(Cc3ccc(Oc4nc5ccccc5s4)cc3)C[C@@H]12 (stereo partly drawn) [Example 93, (R,S)—N-{3-[4-(Benzothiazol-2-yloxy)-benzyl]-3-aza-bicyclo[3.1.0]hex-6-yl}-acetamide] | 0.034
8 | O=C(CO)N1C[C@@H]2C[C@H]1CN2Cc1ccc(Oc2nc3ccccc3s2)cc1 [Example 10, (S,S)-1-{5-[4-(Benzothiazol-2-yloxy)-benzyl]-2,5-diaza-bicyclo[2.2.1]hept-2-yl}-2-hydroxy-ethanone] | 0.01
9 | NC(=O)N[C@H]1C[C@H]2CC[C@@H](C1)N2CCOc1ccc(Oc2nc3cc(F)ccc3s2)cc1 [Example 219, meso-endo-(8-{2-[4-(5-Fluoro-benzothiazol-2-yloxy)-phenoxy]-ethyl}-8-aza-bicyclo[3.2.1]oct-3-yl)-urea] | 0.015
10 | O=C(NCc1ccco1)N1CC2CN(Cc3ccc(Oc4nc5ccccc5s4)cc3)CC2C1 (centres unmarked) [Example 131, 5-[4-(Benzothiazol-2-yloxy)-benzyl]-hexahydro-pyrrolo[3,4-c]pyrrole-2-carboxylic acid (furan-2-ylmethyl)-amide] | 0.013
11 | CC(C)(C)OC(=O)NC1(C(=O)N2C[C@@H]3C[C@H]2CN3Cc2ccc(Oc3nc4ccccc4s3)cc2)CC1 [Example 63, (S,S)-(1-{5-[4-(Benzothiazol-2-yloxy)-benzyl]-2,5-diaza-bicyclo[2.2.1]heptane-2-carbonyl}-cyclopropyl)-carbamic acid tert-butyl ester] | 0.021
12 | CC(=O)N1CC2CN(Cc3ccc(Cc4nc5ccccc5s4)cc3)CC2C1 (centres unmarked) [Example 149, 1-[5-(4-Benzothiazol-2-ylmethyl-benzyl)-hexahydro-pyrrolo[3,4-c]pyrrol-2-yl]-ethanone] | 0.079
13 | CS(=O)(=O)N1C[C@@H]2C[C@H]1CN2CCc1ccc(Oc2nc3ccccc3s2)cc1 [Example 47, (S,S)-2-{4-[2-(5-Methanesulfonyl-2,5-diaza-bicyclo[2.2.1]hept-2-yl)-ethyl]-phenoxy}-benzothiazole] | 0.057
14 | CC(C)(C)OC(=O)CN1C[C@@H]2C[C@H]1CN2Cc1ccc(Oc2nc3ccccc3s2)cc1 [Example 50, (S,S)-{5-[4-(Benzothiazol-2-yloxy)-benzyl]-2,5-diaza-bicyclo[2.2.1]hept-2-yl}-acetic acid tert-butyl ester] | 0.009
